From ChEMBL document CHEMBL1201862, “PubChem BioAssay data set” (2004)
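Grown in 96-well plates, cells were treated for 48 hours with each compound at five concentrations. Insufficient inhibition: endpoint recorded as highest concentration tested. GI50: concentration for 50% inhibition of growth.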 Active and inactive are the calls of the source. Cut-off read from the data, not from the text of the source: active = GI50 up to about 1.1 µM and inactive = higher.

Tests used:
Assay in all cases: NCI-60 cell line screen, 48 h
[1] = test system: 786-0
[2] = test system: A498
[3] = test system: HCT-116
[4] = test system: HL-60
[5] = test system: HT-29
[6] = test system: IGROV-1
[7] = test system: LOX IMVI
[8] = test system: M14
[9] = test system: MDA-N
[10] = test system: NCI-H226
[11] = test system: NCI-H522
[12] = test system: NCI/ADR-RES
[13] = test system: OVCAR-8
[14] = test system: PC-3
[15] = test system: SF-268
[16] = test system: SK-MEL-5
[17] = test system: SN12C
[18] = test system: TK-10
[19] = test system: UO-31

Structure (SMILES)	GI50 [1]	GI50 [2]	GI50 [3]	GI50 [4]	GI50 [5]	GI50 [6]	GI50 [7]	GI50 [8]	GI50 [9]	GI50 [10]	GI50 [11]	GI50 [12]	GI50 [13]	GI50 [14]	GI50 [15]	GI50 [16]	GI50 [17]	GI50 [18]	GI50 [19]
CC(=O)Oc1ccc2c(C)cc(=O)oc2c1	> 100 µM (inactive)	> 100 µM (inactive)	> 100 µM (inactive)	> 100 µM (inactive)	> 100 µM (inactive)	> 100 µM (inactive)	> 100 µM (inactive)	> 100 µM (inactive)	> 100 µM (inactive)	> 100 µM (inactive)	> 100 µM (inactive)	> 100 µM (inactive)	> 100 µM (inactive)	> 100 µM (inactive)	> 100 µM (inactive)	> 100 µM (inactive)	> 100 µM (inactive)	> 100 µM (inactive)	> 100 µM (inactive)
COc1ccc(C2CC(c3ccc(NS(=O)(=O)c4cc([N+](=O)[O-])ccc4C)cc3)=NN2S(=O)(=O)c2cc([N+](=O)[O-])ccc2C)cc1 (stereo not given)	88.5 µM (inactive)	49.3 µM (inactive)	32.7 µM (inactive)	51.6 µM (inactive)	50.4 µM (inactive)	44.4 µM (inactive)	68.1 µM (inactive)	41.1 µM (inactive)	35.8 µM (inactive)	> 100 µM (inactive)	22.3 µM (inactive)	40.8 µM (inactive)	71.9 µM (inactive)	33.8 µM (inactive)	22.8 µM (inactive)	42.2 µM (inactive)	43.5 µM (inactive)	52.6 µM (inactive)	32.1 µM (inactive)
COc1cc(-c2nc(N)c(C#N)c3c2CCS(=O)(=O)c2ccc(C)cc2-3)cc(OC)c1OC	19.1 µM (inactive)	29.4 µM (inactive)	> 100 µM (inactive)	> 100 µM (inactive)	> 100 µM (inactive)	18.7 µM (inactive)	> 100 µM (inactive)	> 100 µM (inactive)	> 100 µM (inactive)	9.46 µM (inactive)	> 100 µM (inactive)	12.6 µM (inactive)	4.98 µM (inactive)	> 100 µM (inactive)	> 100 µM (inactive)	> 100 µM (inactive)	39.6 µM (inactive)	9.98 µM (inactive)	> 100 µM (inactive)
COc1cc(NS(C)(=O)=O)ccc1Nc1cc(C)nc2ccc3[nH]ccc3c12	> 100 µM (inactive)	> 100 µM (inactive)	> 100 µM (inactive)	> 100 µM (inactive)	> 100 µM (inactive)	> 100 µM (inactive)	> 100 µM (inactive)	> 100 µM (inactive)	> 100 µM (inactive)	> 100 µM (inactive)	8.69 µM (inactive)	> 100 µM (inactive)	> 100 µM (inactive)	> 100 µM (inactive)	> 100 µM (inactive)	> 100 µM (inactive)	> 100 µM (inactive)	> 100 µM (inactive)	> 100 µM (inactive)
CCCCCCCCCCCCCC[C@@H](O)[C@H]1CC[C@H]([C@H]2CC[C@H]([C@H](O)CCCCCC[C@@H](O)CC3=C[C@H](C)OC3=O)O2)O1	> 25 µM (inactive)	> 12.5 µM (inactive)	0.203 µM (active)	2.22 µM (inactive)	1.7 µM (inactive)	> 25 µM (inactive)	1.22 µM (inactive)	> 25 µM (inactive)	2.03 µM (inactive)	> 25 µM (inactive)	8.93 µM (inactive)	> 20.1 µM (inactive)	1.75 µM (inactive)	> 25 µM (inactive)	> 25 µM (inactive)	0.117 µM (active)	2.2 µM (inactive)	> 25 µM (inactive)	> 25 µM (inactive)
CCOC(=O)CCC(NC(=O)c1ccc(Nc2cnc3ccc(C(F)(F)F)cc3n2)cc1)C(=O)OCC (stereo not given)	10.5 µM (inactive)	26.4 µM (inactive)	14.5 µM (inactive)	> 100 µM (inactive)	> 80.5 µM (inactive)	10.9 µM (inactive)	36.7 µM (inactive)	> 100 µM (inactive)	> 100 µM (inactive)	28.1 µM (inactive)	65.6 µM (inactive)	11 µM (inactive)	8.81 µM (inactive)	> 81.8 µM (inactive)	15 µM (inactive)	> 64.7 µM (inactive)	> 83.8 µM (inactive)	4.97 µM (inactive)	45.5 µM (inactive)
O=C1C(Br)=Cc2c(Cl)sc(Cl)c21	1.77 µM (inactive)	23.9 µM (inactive)	2.03 µM (inactive)	1.87 µM (inactive)	4.58 µM (inactive)	2.59 µM (inactive)	2.36 µM (inactive)	7.05 µM (inactive)	2.44 µM (inactive)	> 100 µM (inactive)	5.16 µM (inactive)	8.65 µM (inactive)	3.24 µM (inactive)	2.55 µM (inactive)	3.4 µM (inactive)	19.5 µM (inactive)	5.51 µM (inactive)	2.17 µM (inactive)	2.82 µM (inactive)
CC1=CCC([C@@](C)(O)CCCC(C)(C)N=C=S)CC1 (stereo not given in full)	17.7 µM (inactive)	15.3 µM (inactive)	13.7 µM (inactive)	21.8 µM (inactive)	17.7 µM (inactive)	20.2 µM (inactive)	16 µM (inactive)	17.1 µM (inactive)	18.4 µM (inactive)	17.2 µM (inactive)	17.3 µM (inactive)	19.6 µM (inactive)	17.7 µM (inactive)	18.6 µM (inactive)	16.8 µM (inactive)	15.4 µM (inactive)	18.1 µM (inactive)	22 µM (inactive)	13.7 µM (inactive)
NC(=O)SCCC(N)C(=O)O (stereo not given)	> 100 µM (inactive)	> 100 µM (inactive)	> 100 µM (inactive)	> 81.3 µM (inactive)	> 100 µM (inactive)	> 100 µM (inactive)	> 100 µM (inactive)	> 100 µM (inactive)	> 100 µM (inactive)	> 100 µM (inactive)	> 100 µM (inactive)	> 100 µM (inactive)	> 100 µM (inactive)	> 100 µM (inactive)	> 100 µM (inactive)	> 100 µM (inactive)	> 100 µM (inactive)	> 100 µM (inactive)	> 100 µM (inactive)
CCOc1ccc(/N=N/C2C(=O)N(C(=O)CC(=O)Nc3ccccc3OC)N=C2C)cc1 (stereo not given)	> 39.1 µM (inactive)	> 30.1 µM (inactive)	8.63 µM (inactive)	4.17 µM (inactive)	4.13 µM (inactive)	5.43 µM (inactive)	29.7 µM (inactive)	25.5 µM (inactive)	2.52 µM (inactive)	> 52.1 µM (inactive)	11 µM (inactive)	30 µM (inactive)	59.8 µM (inactive)	> 100 µM (inactive)	> 42.8 µM (inactive)	32.3 µM (inactive)	> 100 µM (inactive)	> 33.1 µM (inactive)	> 71.1 µM (inactive)
